# Assay results taken from patent US6683063B2, “Prevention and treatment of pulmonary bacterial infection or symptomatic pulmonary exposure to endotoxin by inhalation of antiendotoxin drugs” (Eisai Co., Ltd., priority 1995, dated 2004).
# Tested on: LPS-induced TNF-α in human whole blood
# Experiment: Persistence of compounds in human whole blood (preincubation, then LPS challenge, cytokine assay)
# Format: cell-based
# Settings: average of 7 separate experiments in triplicate, FIG. 3
# Procedure: FIG. 2 depicts the general scheme used to analyze antagonistic efficacy of drug after incubation in whole blood for various times.
# Although some of the compounds of this invention are not rapidly removed from the circulation, their activity diminishes with a half-life of 1-3 hours. To maintain antagonistic efficacy, this rapid deactivation may require continuous administration. The study of this deactivation has led to the development of an assay to measure in vitro deactivation of drugs in human whole blood. This is done by preincubating lipid A antagonists with blood for various periods of time followed by addition of the LPS “challenge,” as is described above, incubation for three hours, and assay for released cytokines.
smiles,measurement,value
CCCCCCCCCCCC(=O)CC(=O)N[C@H]1[C@@H](OP(=O)(O)O)OC(CO[C@@H]2O[C@H](COC)[C@@H](OP(=O)(O)O)C(OCCC(CCCCCCC)OC(=O)CCC/C=C/C(C)CCCC)[C@H]2NC(=O)CC(=O)CCCCCCCCCCC)[C@@H](O)[C@@H]1OCC[C@H](O)CCCCCCC (stereo partly shown) [Compound B531],persistence of LPS-antagonist activity (inhibition of TNF-α) versus time of preincubation,loses activity with increasing time of preincubation
